Measured values as given in patent US11753407B2, “Compounds for treating spinal muscular atrophy” (PTC Therapeutics, Inc., priority 2012, dated 2023).

Assays:
[1] = system: SMN2 minigene mRNA (SMN2-A minigene) in HEK293H cells; assay: SMN2 minigene mRNA splicing RT-qPCR assay in cultured cells; assay type: cell-based, human; conditions: Homo sapiens, HEK293-H; concentration increasing full length SMN2 mRNA 1.5-fold relative to vehicle-treated cells; HEK293H cells with SMN2-A minigene, 24 hours, 7-point concentration data; read-out: EC1.5x for production of full length SMN2 mRNA
How it was run: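 EC1.5× = concentration raising full-length SMN2 minigene mRNA 1.5-fold over vehicle, from 7-point curves in duplicate. Stably transfected HEK293H cells exposed 24 h at 37 °C; lysates assayed by multiplex RT-qPCR, minigene FL signal normalized to GAPDH via modified ΔΔCt.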

[2] = system: Smn protein in SMA patient fibroblast cells (GM03813); assay: Smn protein assay in cultured cells (SMN HTRF); assay type: cell-based, human; conditions: SMA patient fibroblast cells, 48 hours; for EC1.5x for Smn protein expression: 7-point concentration curve, SMN HTRF, concentration producing 1.5 times Smn protein vs DMSO vehicle control; for maximum fold (Fold) increase of Smn protein: 7-point concentration data, fold relative to vehicle control
How it was run: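 Smn protein quantified by HTRF with anti-SMN d2/kryptate pair, 665/620 nm ratio blank-corrected, in RIPA lysates of GM03813 fibroblasts after 48 h compound exposure (7 concentrations, 3.16-fold steps, triplicates). Values: concentration producing 1.5× vehicle Smn level, and maximal fold increase.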

| melting point | Structure (SMILES) | EC (1.5-fold increase) [1] | EC1.5x for Smn protein expression [2] | maximum fold (Fold) increase of Smn protein [2] |
| --- | --- | --- | --- | --- |
| 212 to 214 °C | CCc1nc(C)cn2nc(-c3cc(=O)n4cc(N5CCCNCC5)ccc4n3)cc12 [Compound 760, 7-(1,4-diazepan-1-yl)-2-(4-ethyl-6-methylpyrazolo[1,5-a]pyrazin-2-yl)-4H-pyrido[1,2-a]pyrimidin-4-one] | < 0.1 µM | **** (an EC1.5x≤0.3 μM is indicated by four stars (****)) | ***** (a fold increase >1.65 is indicated by five stars (*****)) |
| 212 to 214 °C | CCCc1nc(C)cn2nc(-c3cc(=O)n4cc(N5C[C@H]6CNC[C@H]6C5)ccc4n3)cc12 [Compound 761, 7-[(3aR,6aS)-hexahydropyrrolo[3,4-c]pyrrol-2(1H)-yl]-2-(6-methyl-4-propylpyrazolo[1,5-a]pyrazin-2-yl)-4H-pyrido[1,2-a]pyrimidin-4-one] | < 0.1 µM | **** (an EC1.5x≤0.3 μM is indicated by four stars (****)) | ***** (a fold increase >1.65 is indicated by five stars (*****)) |
| 220 to 223 °C | Cc1cn2nc(-c3cc(=O)n4cc(N5CC(N6CCCCC6)C5)ccc4n3)cc2c(C)n1 [Compound 765, 2-(4,6-dimethylpyrazolo[1,5-a]pyrazin-2-yl)-7-[3-(piperidin-1-yl)azetidin-1-yl]-4H-pyrido[1,2-a]pyrimidin-4-one] | 1 to 3 µM | ** (an EC1.5× between >1 μM and ≤3 μM is indicated by two stars (**)) | **** (a fold increase between >1.5 and ≤1.65 is indicated by four stars (****)) |
| 228 to 230 °C | CCCc1nc(C)cn2nc(-c3cc(=O)n4cc(C5CCNCC5)ccc4n3)cc12 [Compound 766, 2-(6-methyl-4-propylpyrazolo[1,5-a]pyrazin-2-yl)-7-(piperidin-4-yl)-4H-pyrido[1,2-a]pyrimidin-4-one] | < 0.1 µM | **** (an EC1.5x≤0.3 μM is indicated by four stars (****)) | ***** (a fold increase >1.65 is indicated by five stars (*****)) |
| 208 to 210 °C | Cc1cn2nc(-c3cc(=O)n4cc(N5CCC6(CCNC6)C5)ccc4n3)cc2c(C)n1 (stereo not drawn) [Compound 767, 7-(2,7-diazaspiro[4.4]non-2-yl)-2-(4,6-dimethylpyrazolo[1,5-a]pyrazin-2-yl)-4H-pyrido[1,2-a]pyrimidin-4-one] | < 0.1 µM | **** (an EC1.5x≤0.3 μM is indicated by four stars (****)) | ***** (a fold increase >1.65 is indicated by five stars (*****)) |
| 216 to 218 °C | Cc1cc(-c2cc(=O)n3cc(N4CCN(C)CC4)ccc3n2)cc2cn(C)nc12 [Compound 768, 2-(2,7-dimethyl-2H-indazol-5-yl)-7-(4-methylpiperazin-1-yl)-4H-pyrido[1,2-a]pyrimidin-4-one] | < 0.1 µM | **** (an EC1.5x≤0.3 μM is indicated by four stars (****)) | ***** (a fold increase >1.65 is indicated by five stars (*****)) |
| 239 to 241 °C | Cc1cn2nc(-c3cc(=O)n4cc(N5CC[C@@H](CN(C)C)C5)ccc4n3)cc2c(C)n1 [Compound 770, 7-{(3S)-3-[(dimethylamino)methyl]pyrrolidin-1-yl}-2-(4,6-dimethylpyrazolo[1,5-a]pyrazin-2-yl)-4H-pyrido[1,2-a]pyrimidin-4-one] | < 0.1 µM | *** (an EC1.5× between >0.3 μM and ≤1 μM is indicated by three stars (***)) | **** (a fold increase between >1.5 and ≤1.65 is indicated by four stars (****)) |
| 241 to 249 °C | CCc1nc(C)cn2nc(-c3cc(=O)n4cc(C5CCNCC5)cc(C)c4n3)cc12 [Compound 771, 2-(4-ethyl-6-methylpyrazolo[1,5-a]pyrazin-2-yl)-9-methyl-7-(piperidin-4-yl)-4H-pyrido[1,2-a]pyrimidin-4-one] | < 0.1 µM | **** (an EC1.5x≤0.3 μM is indicated by four stars (****)) | ***** (a fold increase >1.65 is indicated by five stars (*****)) |
| 212 to 217 °C | Cc1cc(C2CCNCC2)cn2c(=O)cc(-c3ccc4c(cnn4C)c3)nc12 [Compound 772, 9-methyl-2-(1-methyl-1H-indazol-5-yl)-7-(piperidin-4-yl)-4H-pyrido[1,2-a]pyrimidin-4-one] | < 0.1 µM | **** (an EC1.5x≤0.3 μM is indicated by four stars (****)) | ***** (a fold increase >1.65 is indicated by five stars (*****)) |
| 220 to 222 °C | Cc1cc(-c2cc(=O)n3cc(C4CCNCC4)ccc3n2)cc2cnn(C)c12 [Compound 775, 2-(1,7-dimethyl-1H-indazol-5-yl)-7-(piperidin-4-yl)-4H-pyrido[1,2-a]pyrimidin-4-one] | 0.3 to 1 µM |  | *** (a fold increase between >1.35 and ≤1.5 is indicated by three stars (***)) |
| 160 to 163 °C | Cc1cc(-c2cc(=O)n3cc(N4CCNCC4)ccc3n2)cc2cnn(C)c12 [Compound 776, 2-(1,7-dimethyl-1H-indazol-5-yl)-7-(piperazin-1-yl)-4H-pyrido[1,2-a]pyrimidin-4-one] | 1 to 3 µM |  | ** (a fold increase between >1.2 and ≤1.35 is indicated by two stars (**)) |
| 248 to 250 °C | Cc1cc(-c2cc(=O)n3cc(N4CCN[C@@H](C)C4)ccc3n2)cc2cnn(C)c12 [Compound 777, 2-(1,7-dimethyl-1H-indazol-5-yl)-7-[(3S)-3-methylpiperazin-1-yl]-4H-pyrido[1,2-a]pyrimidin-4-one] | 1 to 3 µM | ** (an EC1.5× between >1 μM and ≤3 μM is indicated by two stars (**)) | *** (a fold increase between >1.35 and ≤1.5 is indicated by three stars (***)) |

| Structure (SMILES) | melting point | EC (1.5-fold increase) [1] | EC1.5x for Smn protein expression [2] | maximum fold (Fold) increase of Smn protein [2] |
| --- | --- | --- | --- | --- |
| CCCc1nc(C)cn2nc(-c3cc(=O)n4cc(C5=CCNCC5)ccc4n3)cc12 [Compound 762, 2-(6-methyl-4-propylpyrazolo[1,5-a]pyrazin-2-yl)-7-(1,2,3,6-tetrahydropyridin-4-yl)-4H-pyrido[1,2-a]pyrimidin-4-one] | 257 to 260 °C | < 0.1 µM | **** (an EC1.5x≤0.3 μM is indicated by four stars (****)) | ***** (a fold increase >1.65 is indicated by five stars (*****)) |
| CCc1nc(C)cn2nc(-c3cc(=O)n4cc(C5=CCNCC5)ccc4n3)cc12 [Compound 763, 2-(4-ethyl-6-methylpyrazolo[1,5-a]pyrazin-2-yl)-7-(1,2,3,6-tetrahydropyridin-4-yl)-4H-pyrido[1,2-a]pyrimidin-4-one] | 287 to 289 °C | < 0.1 µM | **** (an EC1.5x≤0.3 μM is indicated by four stars (****)) | ***** (a fold increase >1.65 is indicated by five stars (*****)) |
